Patent publication US11286266B2, “1-imidazothiadiazolo-2H-pyrrol-5-one derivatives” (UCB Biopharma SRL, priority 2018, dated 2022)
Where “and” joins values, the source holds several entries; their conditions need not be identical. Equal values may be shown once.

Molecular target: T1, Human SV2A (Homo sapiens, UniProt Q7L0J3)
T1 construct: expressed in transfected cells; host or cells: human embryonic kidney (HEK) cells; membrane preparations
Assay: Binding assay to SV2A (radioligand competition, HEK membranes)
Settings: human SV2A in HEK membranes, 60 min at 37° C., pIC50 corrected to pKi by Cheng and Prusoff
Experimental: Human SV2A and SV2C proteins were expressed in human embryonic kidney (HEK) cells. HEK SV2A and HEK SV2C membrane preparations were prepared as described in Gillard et al (Eur. J. Pharmacol. 2006, 536, 102-108). To measure affinity of non-labelled compounds, competition experiments were performed as follow: Membranes expressing SV2 proteins (5 to 15 μg proteins per assay) were incubated for 60 min at 37° C. with either [^3H]-2-[4-(3-azidophenyl)-2-oxo-1-pyrrolidinyl]butanamide (5 nM) and/or [^3H]-4R-(2-chloro-2,2-difluoroethyl)-1-{[2-(methoxymethyl)-6-(trifluoromethyl)imidazo[2,1-b][1,3,4]thiadiazol-5-yl]methyl}pyrrolidin-2-one (25 nM) in 0.2 ml of a 50 mM Tris-HCl buffer (pH 7.4) containing 2 mM MgCl2, 0.1% dimethylsulfoxide and ten increasing concentrations of non-labelled test compound (0.1 nM to 10 μM). At the end of the incubation period, the membrane-bound radioligand was recovered by rapid filtration through GF/C glass fiber filters pre-soaked in 0.1% polyethyleneimine. Membranes were washed with at least 4 times the assay volume of ice-cold 50 mM Tris HCl buffer (pH 7.4). The filters were dried and the radioactivity determined by liquid scintillation. […] Measured affinity plC50 values were corrected to pKi according to Cheng and Prusoff (Biochem. Pharmacol. 1973, 22(23), 3099-3108).

T1 sequence (Q7L0J3 whole entry): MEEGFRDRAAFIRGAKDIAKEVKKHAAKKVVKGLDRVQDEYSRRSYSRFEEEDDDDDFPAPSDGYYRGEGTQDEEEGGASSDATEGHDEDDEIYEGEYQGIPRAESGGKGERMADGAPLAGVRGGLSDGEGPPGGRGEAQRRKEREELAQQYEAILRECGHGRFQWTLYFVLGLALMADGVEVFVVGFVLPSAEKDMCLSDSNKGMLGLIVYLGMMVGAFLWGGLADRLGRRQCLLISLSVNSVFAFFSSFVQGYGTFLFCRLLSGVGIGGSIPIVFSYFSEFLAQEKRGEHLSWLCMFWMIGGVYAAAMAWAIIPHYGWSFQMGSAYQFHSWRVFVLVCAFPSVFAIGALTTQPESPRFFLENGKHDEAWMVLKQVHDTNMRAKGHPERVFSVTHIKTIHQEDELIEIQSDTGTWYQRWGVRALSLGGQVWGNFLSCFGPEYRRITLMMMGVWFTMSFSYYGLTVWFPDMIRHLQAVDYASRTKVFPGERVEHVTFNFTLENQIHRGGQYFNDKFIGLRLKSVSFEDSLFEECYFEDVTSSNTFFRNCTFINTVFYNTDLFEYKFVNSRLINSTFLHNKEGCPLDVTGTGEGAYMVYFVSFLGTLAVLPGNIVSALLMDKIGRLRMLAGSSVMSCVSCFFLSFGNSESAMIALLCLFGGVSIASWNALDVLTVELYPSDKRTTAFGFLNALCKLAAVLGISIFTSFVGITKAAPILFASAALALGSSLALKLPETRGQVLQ

| Compound | Ki |
| --- | --- |
| COCc1nn2c(CN3CC(C4CC4(F)F)=CC3=O)c(C(F)(F)F)nc2s1 (single isomer, unassigned) [Example 17-A, 3-(2,2-difluorocyclopropyl)-1-[[2-(methoxymethyl)-6-(trifluoromethyl)imidazo[2,1-b][1,3,4]thiadiazol-5-yl]methyl]-2H-pyrrol-5-one] | 3.16 to 10 nM |
| COCc1nn2c(CN3CC(CC(F)(F)Cl)=CC3=O)c(C(F)(F)F)nc2s1 [Example 12, 3-(2-chloro-2,2-difluoro-ethyl)-1-[[2-(methoxymethyl)-6-(trifluoromethyl)imidazo[2,1-b][1,3,4]thiadiazol-5-yl]methyl]-2H-pyrrol-5-one] | 3.16 to 10 nM |
| COCc1nn2c(CN3CC(CCC(F)(F)F)=CC3=O)c(Cl)nc2s1 [Example 7, 1-[[6-chloro-2-(methoxymethyl)imidazo[2,1-b][1,3,4]thiadiazol-5-yl]methyl]-3-(3,3,3-trifluoropropyl)-2H-pyrrol-5-one] | 3.16 to 10 nM |
| CCCC1=CC(=O)N(Cc2c(Cl)nc3sc(COC)nn23)C1 [Example 6, 1-[[6-chloro-2-(methoxymethyl)imidazo[2,1-b][1,3,4]thiadiazol-5-yl]methyl]-3-propyl-2H-pyrrol-5-one] | 3.16 to 10 nM |
| COCc1nn2c(CN3CC(C4CC4(F)F)=CC3=O)c(C(F)F)nc2s1 (single isomer, unassigned) [Example 19-A, 1-[[6-(difluoromethyl)-2-(methoxymethyl)imidazo[2,1-b][1,3,4]thiadiazol-5-yl]methyl]-3-[2,2-difluorocyclopropyl]-2H-pyrrol-5-one] | 3.16 to 10 nM |
| COCc1nn2c(CN3CC(CC(F)(F)F)=CC3=O)c(C(F)(F)F)nc2s1 [Example 2, 1-[[2-(methoxymethyl)-6-(trifluoromethyl)imidazo[2,1-b][1,3,4]thiadiazol-5-yl]methyl]-3-(2,2,2-trifluoroethyl)-2H-pyrrol-5-one] | 10 to 31.6 nM |
| O=C1C=C(CCC(F)(F)F)CN1Cc1c(C(F)F)nc2sc(CO)nn12 [Example 22, 1-[[6-(difluoromethyl)-2-(hydroxymethyl)imidazo[2,1-b][1,3,4]thiadiazol-5-yl]methyl]-3-(3,3,3-trifluoropropyl)-2H-pyrrol-5-one] | 31.6 to 316 nM |
| COCc1nn2c(CN3CC(CCC(F)(F)F)=CC3=O)c(C(F)F)nc2s1 [Example 14, 1-[[6-(difluoromethyl)-2-(methoxymethyl)imidazo[2,1-b][1,3,4]thiadiazol-5-yl]methyl]-3-(3,3,3-trifluoropropyl)-2H-pyrrol-5-one] | 3.16 to 10 nM |
| CCCC1=CC(=O)N(Cc2c(C(F)(F)F)nc3sc(COC)nn23)C1 [Example 1, 1-[[2-(methoxymethyl)-6-(trifluoromethyl)imidazo[2,1-b][1,3,4]thiadiazol-5-yl]methyl]-3-propyl-2H-pyrrol-5-one] | 3.16 to 10 nM |
| COCc1nn2c(CN3CC(CC(F)(F)F)=CC3=O)c(C3(F)CC3)nc2s1 [Example 11, 1-[[6-(1-fluorocyclopropyl)-2-(methoxymethyl)imidazo[2,1-b][1,3,4]thiadiazol-5-yl]methyl]-3-(2,2,2-trifluoroethyl)-2H-pyrrol-5-one] | 10 to 31.6 nM and 3.16 to 10 nM |
| Cc1nc2sc(CO)nn2c1CN1CC(CCC(F)(F)F)=CC1=O [Example 21, 1-[[2-(hydroxymethyl)-6-methyl-imidazo[2,1-b][1,3,4]thiadiazol-5-yl]methyl]-3-(3,3,3-trifluoropropyl)-2H-pyrrol-5-one] | 31.6 to 316 nM |
| CCCC1=CC(=O)N(Cc2c(C(F)F)nc3sc(COC)nn23)C1 [Example 8, 1-[[6-(difluoromethyl)-2-(methoxymethyl)imidazo[2,1-b][1,3,4]thiadiazol-5-yl]methyl]-3-propyl-2H-pyrrol-5-one] | 3.16 to 10 nM |
| COCc1nn2c(CN3CC(CCC(F)(F)F)=CC3=O)c(C(F)(F)F)nc2s1 [Example 3, 1-[[2-(methoxymethyl)-6-(trifluoromethyl)imidazo[2,1-b][1,3,4]thiadiazol-5-yl]methyl]-3-(3,3,3-trifluoropropyl)-2H-pyrrol-5-one] | 3.16 to 10 nM |
| O=C1C=C(CC(F)(F)F)CN1Cc1c(C(F)F)nc2sc(CO)nn12 [Example 23, 1-[[6-(difluoromethyl)-2-(hydroxymethyl)imidazo[2,1-b][1,3,4]thiadiazol-5-yl]methyl]-3-(2,2,2-trifluoroethyl)-2H-pyrrol-5-one] | 31.6 to 316 nM |

Results, then the compound that gave them:

| Ki | Compound |
| --- | --- |
| 31.6 to 316 nM | COCc1nn2c(CN3CC(C4CC4(F)F)=CC3=O)c(C)nc2s1 (single isomer, unassigned) [Example 18-B, 1-[[2-(methoxymethyl)-6-methyl-imidazo[2,1-b][1,3,4]thiadiazol-5-yl]methyl]-3-[2,2-difluorocyclopropyl]-2H-pyrrol-5-one] |
| 3.16 to 10 nM | COCc1nn2c(CN3CC(CC(F)(F)F)=CC3=O)c(C(F)F)nc2s1 [Example 10, 1-[[6-(difluoromethyl)-2-(methoxymethyl)imidazo[2,1-b][1,3,4]thiadiazol-5-yl]methyl]-3-(2,2,2-trifluoroethyl)-2H-pyrrol-5-one] |
| 3.16 to 10 nM | COCc1nn2c(CN3CC(CC(C)(F)F)=CC3=O)c(C(F)F)nc2s1 [Example 16, 1-[[6-(difluoromethyl)-2-(methoxymethyl)imidazo[2,1-b][1,3,4]thiadiazol-5-yl]methyl]-3-(2,2-difluoropropyl)-2H-pyrrol-5-one] |
| 3.16 to 10 nM | COCc1nn2c(CN3CC(CCC(F)(F)F)=CC3=O)c(C)nc2s1 [Example 13, 1-[[2-(methoxymethyl)-6-methyl-imidazo[2,1-b][1,3,4]thiadiazol-5-yl]methyl]-3-(3,3,3-trifluoropropyl)-2H-pyrrol-5-one] |
| 3.16 to 10 nM | COCc1nn2c(CN3CC(CC(C)(F)F)=CC3=O)c(C(F)(F)F)nc2s1 [Example 15, 3-(2,2-difluoropropyl)-1-[[2-(methoxymethyl)-6-(trifluoromethyl)imidazo[2,1-b][1,3,4]thiadiazol-5-yl]methyl]-2H-pyrrol-5-one] |
| 10 to 31.6 nM | COCc1nn2c(CN3CC(CC(C)(F)F)=CC3=O)c(C)nc2s1 [Example 20, 3-(2,2-difluoropropyl)-1-[[2-(methoxymethyl)-6-methyl-imidazo[2,1-b][1,3,4]thiadiazol-5-yl]methyl]-2H-pyrrol-5-one] |
| 10 to 31.6 nM | COCc1nn2c(CN3CC(C4CC4(F)F)=CC3=O)c(C)nc2s1 (single isomer, unassigned) [Example 18-A, 1-[[2-(methoxymethyl)-6-methyl-imidazo[2,1-b][1,3,4]thiadiazol-5-yl]methyl]-3-[2,2-difluorocyclopropyl]-2H-pyrrol-5-one] |
| 3.16 to 10 nM | COCc1nn2c(CN3CC(CC(F)(F)F)=CC3=O)c(C)nc2s1 [Example 9, 1-[[2-(methoxymethyl)-6-methyl-imidazo[2,1-b][1,3,4]thiadiazol-5-yl]methyl]-3-(2,2,2-trifluoroethyl)-2H-pyrrol-5-one] |
| 10 to 31.6 nM | COCc1nn2c(CN3CC(CC(F)(F)F)=CC3=O)c(Cl)nc2s1 [Example 5, 1-[[6-chloro-2-(methoxymethyl)imidazo[2,1-b][1,3,4]thiadiazol-5-yl]methyl]-3-(2,2,2-trifluoroethyl)-2H-pyrrol-5-one] |
| 3.16 to 10 nM | CCCC1=CC(=O)N(Cc2c(C)nc3sc(COC)nn23)C1 [Example 4, 1-[[2-(methoxymethyl)-6-methyl-imidazo[2,1-b][1,3,4]thiadiazol-5-yl]methyl]-3-propyl-2H-pyrrol-5-one] |
